Data published in ChEMBL document CHEMBL1157976, “Iridoid constituents of Tarenna attenuata” (J Nat Prod, 2006).
The source made the active and inactive calls. No cut-off for these calls is given here.

Tests used:
PC-12 [1] = assay: Antioxidant activity against H2O2-induced impairment of rat PC12 cells apoptosis at 0.4 to 50 uM; assay type: functional, cell-based
PC-12 [2] = assay: Cytotoxicity against rat PC12 cells at 0.4 to 50 uM; assay type: functional, cell-based

| SMILES | Activity (PC-12 [1]) | Activity (PC-12 [2]) |
| --- | --- | --- |
| O=C(O)C1=CC[C@@H]2C(C(=O)O)=CO[C@@H](O[C@@H]3O[C@H](COC(=O)c4ccccc4)[C@@H](O)[C@H](O)[C@H]3O)[C@H]12 | inactive | inactive |
| O=C(O)C1=CC[C@@H]2C(C(=O)O)=CO[C@@H](O[C@@H]3O[C@H](CO)[C@@H](O)[C@H](O)[C@H]3O)[C@H]12 | inactive | inactive |
| O=C(/C=C/c1ccccc1)OC[C@H]1O[C@@H](O[C@@H]2OC=C(C(=O)O)[C@H]3CC=C(C(=O)O)[C@@H]23)[C@H](O)[C@@H](O)[C@@H]1O | inactive | inactive |
| COc1cc(C(=O)O[C@@H]2[C@@H](O)[C@H](O[C@@H]3OC=C(C(=O)O)[C@H]4CC=C(C(=O)O)[C@@H]34)O[C@H](CO)[C@H]2O)ccc1O | inactive | inactive |
| COc1cc(/C=C/C(=O)O[C@H]2[C@H](O)[C@@H](O)[C@H](O[C@@H]3OC=C(C(=O)O)[C@H]4CC=C(C(=O)O)[C@@H]34)O[C@@H]2CO)ccc1O | inactive | inactive |
| COc1cc(C(=O)OC[C@H]2O[C@@H](O[C@@H]3OC=C(C(=O)O)[C@H]4CC=C(C(=O)O)[C@@H]34)[C@H](O)[C@@H](O)[C@@H]2O)cc(OC)c1O | inactive | inactive |
| COC(=O)C1=CC[C@@H]2C(C(=O)O)=CO[C@@H](O[C@@H]3O[C@H](CO)[C@@H](O)[C@H](O)[C@H]3O)[C@H]12 | inactive | inactive |
| COc1cc(/C=C/C(=O)OC[C@H]2O[C@@H](O[C@@H]3OC=C(C(=O)O)[C@H]4CC=C(C(=O)O)[C@@H]34)[C@H](O)[C@@H](O)[C@@H]2O)ccc1O | inactive | inactive |
| COc1cc(C(=O)OC[C@H]2O[C@@H](O[C@@H]3OC=C(C(=O)O)[C@H]4CC=C(C(=O)O)[C@@H]34)[C@H](O)[C@@H](O)[C@@H]2O)ccc1O | inactive | inactive |
